Tests used:
Kidney = assay: Inhibition of lipid peroxidation in renal failured rat kidney homogenate assessed as inhibition of malondialdehyde level by TBARS assay; assay type: functional, tissue-based
Plasma = assay: Inhibition of lipid peroxidation in renal failured rat plasma assessed as inhibition of malondialdehyde level by TBARS assay; assay type: functional, cell-free
[1] = Antioxidant activity against 2,2'-azobis (2-amidinopropane) dihydrochloride-induced fluorescence decay at 1.5 uM assessed as trolox equivalents by ORAC-fluorescence assay; assay type: functional
[2] = Antioxidant activity assessed as oxygen radical scavenging activity by ORAC-fluorescence assay; assay type: functional

Structure (SMILES)	IC50 (Kidney)	IC50 (Plasma)	Activity [1]	Activity [2]
O=C1O[C@H]([C@@H](O)CO)C(O)=C1O [ASCORBIC ACID]	3050 µM	5540 µM	165	Dose-dependent effect
COc1c(CCC(C)(C)O)c(O)cc2oc(=O)c3c4cc(O)c(O)cc4oc3c12 [LESPEDEZACOUMESTAN]	450 µM	190 µM	450	Dose-dependent effect
COc1ccc(O)c(-c2cc3ccc(O)c(OC)c3o2)c1OC [LESPEDEZAVIRGATOL]	160 µM	180 µM	763	Dose-dependent effect
COc1cc(OC)c(-c2oc3cc(O)c(O)cc3c2C=O)c(OC)c1 [LESPEDEZAVIRGATAL]	640 µM	750 µM	189	Dose-dependent effect

Source: ChEMBL document CHEMBL1157399, “Antioxidant 2-phenylbenzofurans and a coumestan from Lespedeza virgata” (J Nat Prod, 2008)
